From ChEMBL document CHEMBL6071129, “Strategies that regulate Hippo signaling pathway for novel anticancer therapeutics” (Eur J Med Chem, 2024)

Columns and labels:
NCI-H1975 = test: Antiproliferative activity against human NCI-H1975 cells incubated for 48 hrs by SRB assay; type: functional, cell-based; details: NCI-H1975, 48 h
[1] = tested on: Lewis lung carcinoma cell line; test: Antiproliferative activity against mouse Lewis lung carcinoma cell line incubated for 48 hrs by SRB assay; type: functional, cell-based
NCI-H460 = test: Antiproliferative activity against human NCI-H460 cells incubated for 48 hrs by SRB assay; type: functional, cell-based; details: NCI-H460, 48 h
MCF7 [2] = test: Antiproliferative activity against human MCF7 cells incubated for 48 hrs by CCK8 assay; type: functional, cell-based; details: MCF7, 48 h
HCT-116 = test: Antiproliferative activity against human HCT-116 cells incubated for 48 hrs by MTT assay; type: functional, cell-based; details: HCT-116, 48 h
A2780 = test: Antiproliferative activity against human A2780 cells incubated for 48 hrs by MTT assay; type: functional, cell-based; details: A2780, 48 h
[3] = Antiproliferative activity against human A2780/CP70 cells incubated for 48 hrs by MTT assay; type: functional, cell-based; details: A2780/CP70, 48 h
[4] = Antiproliferative activity against human HCA46 cells incubated for 48 hrs by MTT assay; type: functional, cell-based; details: HCA46, 48 h
HT-29 = test: Antiproliferative activity against human HT-29 cells incubated for 48 hrs by MTT assay; type: functional, cell-based; details: HT-29, 48 h
[5] = Inhibition of His-tagged TEAD1 (unknown origin) to YAP (unknown origin) protein-protein interaction preincubated for 30 mins followed by biotinylated YAP addition and measured after 60 mins by TR-FRET assay; design: species or system Homo sapiens
[6] = Inhibition of His-tagged TEAD2 (unknown origin) to YAP (unknown origin) protein-protein interaction preincubated for 30 mins followed by biotinylated YAP addition and measured after 60 mins by TR-FRET assay; design: species or system Homo sapiens
[7] = Inhibition of His-tagged TEAD3 (unknown origin) to YAP (unknown origin) protein-protein interaction preincubated for 30 mins followed by biotinylated YAP addition and measured after 60 mins by TR-FRET assay; design: species or system Homo sapiens
[8] = Inhibition of His-tagged TEAD4 (unknown origin) to YAP (unknown origin) protein-protein interaction preincubated for 30 mins followed by biotinylated YAP addition and measured after 60 mins by TR-FRET assay; design: species or system Homo sapiens
[9] = Inhibition of His-tagged TEAD1 (unknown origin) to TAZ (unknown origin) protein-protein interaction preincubated for 30 mins followed by biotinylated YAP addition and measured after 60 mins by TR-FRET assay; design: species or system Homo sapiens
[10] = Inhibition of His-tagged TEAD2 (unknown origin) to TAZ (unknown origin) protein-protein interaction preincubated for 30 mins followed by biotinylated YAP addition and measured after 60 mins by TR-FRET assay; design: species or system Homo sapiens
[11] = Inhibition of His-tagged TEAD3 (unknown origin) to TAZ (unknown origin) protein-protein interaction preincubated for 30 mins followed by biotinylated YAP addition and measured after 60 mins by TR-FRET assay; design: species or system Homo sapiens
[12] = Inhibition of His-tagged TEAD4 (unknown origin) to TAZ (unknown origin) protein-protein interaction preincubated for 30 mins followed by biotinylated YAP addition and measured after 60 mins by TR-FRET assay; design: species or system Homo sapiens
[13] = tested on: Transcriptional enhancer factor TEF-1-Lipid; test: Inhibition of His-tagged TEAD1 (unknown origin) to lipid (unknown origin) interaction preincubated for 30 mins followed by biotinylated lipid addition and measured after 60 mins by TR-FRET assay; design: species or system Homo sapiens
[14] = tested on: Transcriptional enhancer factor TEF-4-Lipid; test: Inhibition of His-tagged TEAD2 (unknown origin) to lipid (unknown origin) interaction preincubated for 30 mins followed by biotinylated lipid addition and measured after 60 mins by TR-FRET assay; design: species or system Homo sapiens
[15] = tested on: Transcriptional enhancer factor TEF-5-Lipid; test: Inhibition of His-tagged TEAD3 (unknown origin) to lipid (unknown origin) interaction preincubated for 30 mins followed by biotinylated lipid addition and measured after 60 mins by TR-FRET assay; design: species or system Homo sapiens
[16] = tested on: Transcriptional enhancer factor TEF-3-Lipid; test: Inhibition of His-tagged TEAD4 (unknown origin) to lipid (unknown origin) interaction preincubated for 30 mins followed by biotinylated lipid addition and measured after 60 mins by TR-FRET assay; design: species or system Homo sapiens
[17] = Antiproliferative activity against human JHESO cells incubated for 72 hrs by MTS assay; type: functional, cell-based
[18] = Antiproliferative activity against human SKGT4 cells incubated for 72 hrs by MTS assay; type: functional, cell-based; details: SKGT4, 72 h
[19] = Antiproliferative activity against human OACP cells incubated for 72 hrs by MTS assay; type: functional, cell-based
[20] = Antiproliferative activity against human FLO-1 cells incubated for 72 hrs by MTS assay; type: functional, cell-based; details: FLO-1, 72 h
GBM = test: Antiproliferative activity against human GBM cells incubated for 48 hrs by CCK8 assay; type: functional, cell-based
U-251 [21] = test: Antiproliferative activity against human U-251 cells incubated for 48 hrs by CCK8 assay; type: functional, cell-based; details: U-251, 48 h
U-87 MG = test: Antiproliferative activity against human U87 cells incubated for 48 hrs by CCK8 assay; type: functional, cell-based, U-87MG ATCC
[22] = Antiproliferative activity against mouse GL261 cells incubated for 48 hrs by CCK8 assay; type: functional, cell-based; details: GL261, 48 h
LN-229 = test: Antiproliferative activity against LN-229 cells incubated for 48 hrs by CCK8 assay; type: functional, cell-based; details: Homo sapiens, LN-229, 48 h
[23] = Antiproliferative activity against […] cells incubated for 48 hrs by CCK8 assay; type: functional, cell-based; details: U373 MG
NCI-H2052 = test: Antiproliferative activity against human NCI-H2052 cells; type: functional, cell-based
[24] = Inhibition of TEAD (unknown origin) by YAP reporter assay; design: species or system Homo sapiens
U-251 [25] = test: Antiproliferative activity against human U251 cells incubated for 48 hrs by CCK8 assay; type: functional, cell-based; details: U-251, 48 h
C6 = test: Antiproliferative activity against rat C6 cells incubated for 48 hrs by CCK8 assay; type: functional, cell-based; details: C6, 48 h
MDA-MB-231 = test: Antiproliferative activity against human MDA-MB-231 cells incubated for 96 hrs by MTT assay; type: functional, cell-based; details: MDA-MB-231, 96 h
[26] = Antiproliferative activity against human HBC5 cells incubated for 96 hrs by MTT assay; type: functional, cell-based; details: HBC5, 96 h
MDA-MB-453 = test: Antiproliferative activity against human MDA-MB-453 cells incubated for 96 hrs by MTT assay; type: functional, cell-based; details: MDA-MB-453, 96 h
MGC-803 = test: Antiproliferative activity against human MGC-803 cells incubated for 48 hrs by MTT assay; type: functional, cell-based; details: MGC-803, 48 h
SGC-7901 = test: Antiproliferative activity against human SGC-7901 cells incubated for 48 hrs by MTT assay; type: functional, cell-based; details: SGC-7901, 48 h
HGC-27 = test: Antiproliferative activity against human HGC-27 cells incubated for 48 hrs by MTT assay; type: functional, cell-based; details: HGC-27, 48 h
PC-3 = test: Antiproliferative activity against human PC-3 cells incubated for 48 hrs by MTT assay; type: functional, cell-based; details: PC-3, 48 h
MCF7 [27] = test: Antiproliferative activity against human MCF7 cells incubated for 48 hrs by MTT assay; type: functional, cell-based; details: MCF7, 48 h

## C[C@H]1[C@H](OC(=O)CCC(=O)O)O[C@@H]2O[C@@]3(C)CC[C@H]4[C@H](C)CC[C@@H]1[C@@]24OO3 [ARTESUNATE]
NCI-H1975
  IC50: 4.02 µM
[1]
  IC50: 11.1 µM
NCI-H460
  IC50: 16.1 µM

## CCC(C)(C)C(=O)O[C@H]1C[C@@H](C)C=C2C=C[C@H](C)[C@H](CC[C@@H]3C[C@@H](O)CC(=O)O3)[C@H]21 [SIMVASTATIN]
MCF7 [2]
  IC50: > 10 µM

## O=C1C=C(Nc2ccc(O)cc2)C(=O)c2ccccc21
HCT-116
  IC50: 4.17 µM
A2780
  IC50: 3.8 µM
[3]
  IC50: 5.35 µM
[4]
  IC50: 19.8 µM
HT-29
  IC50: 2.68 µM

## CCOC(=O)c1cnn2c(=O)cc(-c3ccc(C(F)(F)F)cc3)[nH]c12
[5]
  IC50: > 5 µM
[6]
  IC50: 3 µM
[7]
  IC50: 1.4 µM
[8]
  IC50: > 50 µM
[9]
  IC50: 1.3 µM
[10]
  IC50: 2 µM
[11]
  IC50: 1.3 µM
[12]
  IC50: 20 µM
[13]
  IC50: 1.1 µM
[14]
  IC50: 1.6 µM
[15]
  IC50: 0.7 µM
[16]
  IC50: > 50 µM

## O=S(=O)(c1ccc2c(c1)C(=NO)c1cc(S(=O)(=O)N3CCCCC3)ccc1-2)N1CCCCC1
[17]
  IC50: < 1 µM
[18]
  IC50: < 1 µM
[19]
  IC50: < 1 µM
[20]
  IC50: < 1 µM

## CN(C)CCCN1c2ccccc2CCc2ccccc21 [IMIPRAMINE]
GBM
  IC50: 22.1 µM
U-251 [21]
  IC50: 24 µM
U-87 MG
  IC50: 13.3 µM
[22]
  IC50: 43.8 µM
LN-229
  IC50: 153 µM
[23]
  IC50: 346 µM

## CC(NC(=O)c1cc2nc(N(C)C)n(-c3ccc(Br)cc3)c2s1)c1ccccn1 (stereo unspecified)
NCI-H2052
  IC50: 2.03 µM
[24]
  IC50: 0.391 µM

## O=c1ccc2ccc3occc3c2o1 [ANGELICIN]
U-251 [25]
  IC50: 200 µM
C6
  IC50: 200 µM

## Cc1nc(Nc2ncc(C(=O)Nc3c(C)cccc3Cl)s2)cc(N2CCN(CCO)CC2)n1 [DASATINIB ANHYDROUS]
MDA-MB-231
  IC50: < 10 µM
[26]
  IC50: < 10 µM

## Cc1ccc(Nc2nccc(N(C)c3ccc4c(C)n(C)nc4c3)n2)cc1S(N)(=O)=O [PAZOPANIB]
MDA-MB-231
  IC50: ≤ 10 µM
[26]
  IC50: ≤ 10 µM
MDA-MB-453
  IC50: ≤ 10 µM

## COc1ccc(S(=O)(=O)N(Cc2nc(C)c3ccccc3n2)c2cc(OC)c(OC)c(OC)c2)cc1
MGC-803
  IC50: 0.36 µM
SGC-7901
  IC50: 0.38 µM
HGC-27
  IC50: 0.46 µM
HCT-116
  IC50: 0.7 µM
PC-3
  IC50: 1.04 µM
MCF7 [27]
  IC50: 0.81 µM
